Data from PubChem BioAssay AID1259411 (Chemical Carcinogenesis Research Information System (CCRIS), 2018).
Active and inactive are the calls of the source. No rule for the calls is given here.

System: rodent carcinogenicity bioassays, tumor incidence
Assay: CCRIS carcinogenicity studies
In short: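 Archive of carcinogenicity, mutagenicity, tumor promotion and tumor inhibition results drawn from journals, NCI reports and other sources, expert-reviewed; covers 1985-2011 and is no longer updated.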

Measured: carcinogen call

c1ccccc1
inactive: Species: MOUSE, Strain/Sex: C57BL/MALE, Route: INHALATION, Dose: 0, 1200 PPM 6HR/D, 5D/WK FOR 10 WK (STUDY DURATION: LIFESPAN) inactive; negative | Species: MOUSE, Strain/Sex: EU-PIM-1/FEMALE, Route: GAVAGE, Dose: 0, 50, 100 MG/KG 1/D FOR 40 WK (STUDY DURATION: 40 WK), Dose: 0, 50, 100 MG/KG 1/D FOR 40 WK (STUDY DURATION: 40 WK) inactive; negative | Species: MOUSE, Strain/Sex: EU-PIM-1/MALE, Route: GAVAGE, Dose: 0, 50, 100 MG/KG 1/D FOR 40 WK (STUDY DURATION: 40 WK), Dose: 0, 50, 100 MG/KG 1/D FOR 40 WK (STUDY DURATION: 40 WK) inactive; negative | Species: MOUSE, Strain/Sex: SWISS/FEMALE, Route: INTRAPERITONEAL, Dose: 0, 36.1, 137.3 UMOL ADMINISTERED AS 3 UNEQUAL DOSES (1/7, 2/7, AND 4/7 OF THE TOTAL DOSE) OVER A 2-WK PERIOD (STUDY DURA, Dose: 0, 36.1, 137.3 UMOL ADMINISTERED AS 3 UNEQUAL DOSES (1/7, 2/7, AND 4/7 OF THE TOTAL DOSE) OVER A 2-WK PERIOD (STUDY DURA inactive; negative | Species: MOUSE, Strain/Sex: SWISS/MALE, Route: INTRAPERITONEAL, Dose: 0, 36.1, 137.3 UMOL ADMINISTERED AS 3 UNEQUAL DOSES (1/7, 2/7, AND 4/7 OF THE TOTAL DOSE) OVER A 2-WK PERIOD (STUDY DURA, Dose: 0, 36.1, 137.3 UMOL ADMINISTERED AS 3 UNEQUAL DOSES (1/7, 2/7, AND 4/7 OF THE TOTAL DOSE) OVER A 2-WK PERIOD (STUDY DURA inactive; negative
active: Species: HUMAN, Route: INHALATION, DERMAL, Tumor Site: Type of Lesion: HEMATOPOIETIC SYSTEM (LEUKEMIA) active; positive | Species: MOUSE, Route: INHALATION, Dose: 0, 300 PPM 6 HR/D 5 D/WK FOR 16 WK (STUDY DURATION: LIFETIME), Tumor Site: Type of Lesion: HEMATOPOIETIC SYSTEM: LYMPHOMA active; positive | Species: MOUSE, Strain/Sex: B6C3F1/FEMALE, Route: GAVAGE, Dose: 0, 25, 50, 100 MG/KG IN CORN OIL 5 D/WK FOR 103 WK, Dose: 0, 25, 50, 100 MG/KG IN CORN OIL 5 D/WK FOR 103 WK, Tumor Site: Type of Lesion: LUNG: ALVEOLAR/BRONCHIOLAR CARCINOMA, ALVEOLAR/BRONCHIOLAR ADENOMA OR CARCINOMA, HEMATOPOIETIC SYSTEM: MALIGNANT LYMPHOM active; positive | Species: MOUSE, Strain/Sex: B6C3F1/MALE, Route: GAVAGE, Dose: 0, 25, 50, 100 MG/KG IN CORN OIL 5 D/WK FOR 103 WK, Dose: 0, 25, 50, 100 MG/KG IN CORN OIL 5 D/WK FOR 103 WK, Tumor Site: Type of Lesion: LUNG: ALVEOLAR/BRONCHIOLAR CARCINOMA, ALVEOLAR/BRONCHIOLAR ADENOMA, HEMATOPOIETIC SYSTEM: MALIGNANT LYMPHOMA, LEUKEMIA O active; positive | Species: MOUSE, Strain/Sex: C57BL/FEMALE, Route: INHALATION, Dose: 0, 300 PPM 6 HR/D 5 D/WK FOR 16 WK (STUDY DURATION: 64 WK), Tumor Site: Type of Lesion: LYMPHATIC SYSTEM: LYMPHOMA active; positive | Species: MOUSE, Strain/Sex: C57BL/FEMALE, Route: INHALATION, Dose: 0, 300 PPM 6 HR/D 5 D/WK FOR 16 WK (STUDY DURATION: 750 D), Tumor Site: Type of Lesion: HEMATOPOIETIC SYSTEM: LYMPHOCYTIC LEUKEMIA, LEUKEMIA, THYMUS GLAND: LEUKEMIA, ZYMBAL GLAND: TUMOR, OVARY: TUMOR, Tumor Site: Type of Lesion: HEMATOPOIETIC SYSTEM: LYMPHOCYTIC LEUKEMIA, LEUKEMIA, THYMUS GLAND: LEUKEMIA, ZYMBAL GLAND: TUMOR, OVARY: TUMOR active; positive | Species: MOUSE, Strain/Sex: C57BL/MALE, Route: INHALATION, Dose: 0, 300 PPM 6HR/D, 5D/WK FOR 1 WK FOLLOWED BY 2 WK NO TREATMENT, CYCLE REPEATED FOR LIFESPAN (STUDY DURATION: LIFESPAN), Tumor Site: Type of Lesion: LUNG: ADENOMA, HEMATOPOIETIC SYSTEM: LEUKEMIA OR LYMPHOMA, ZYMBAL GLAND: CARCINOMA, Tumor Site: Type of Lesion: LUNG: ADENOMA, HEMATOPOIETIC SYSTEM: LEUKEMIA OR LYMPHOMA, ZYMBAL GLAND: CARCINOMA active; positive | Species: MOUSE, Strain/Sex: C57BL/MALE, Route: INHALATION, Dose: 0, 300 PPM 6 HR/D, 5 D/WK FOR LIFE, Tumor Site: Type of Lesion: HEMATOPOIETIC SYSTEM: LYMPHOCYTIC LYMPHOMA active; positive | Species: MOUSE, Strain/Sex: CBA/CA BNL/FEMALE, Route: INHALATION, Dose: 0, 300 PPM 6 HR/D 5 D/WK FOR 16 WK (STUDY DURATION: >1100 D), Tumor Site: Type of Lesion: HEMATOPOIETIC SYSTEM: MYELOGENOUS NEOPLASM active; positive | Species: MOUSE, Strain/Sex: CBA/CA BNL/MALE, Route: INHALATION, Dose: 0, 100, 300 PPM 6 HR/D 5 D/WK FOR 16 WK (STUDY DURATION: >1100 D), Dose: 0, 100, 300 PPM 6 HR/D 5 D/WK FOR 16 WK (STUDY DURATION: >1100 D), Tumor Site: Type of Lesion: HEMATOPOIETIC SYSTEM: MYELOGENOUS NEOPLASM active; positive | Species: MOUSE, Strain/Sex: CBA/MALE, Route: INHALATION, Dose: 0, 300 PPM 6 HR/D 5 D/WK FOR 16 WK (STUDY DURATION: 22 MO), Tumor Site: Type of Lesion: LYMPHATIC SYSTEM: MALIGNANT LYMPHOMA, PREPUTIAL GLAND: SQUAMOUS CELL CARCINOMA, LUNG: ADENOMA, Tumor Site: Type of Lesion: LYMPHATIC SYSTEM: MALIGNANT LYMPHOMA, PREPUTIAL GLAND: SQUAMOUS CELL CARCINOMA, LUNG: ADENOMA active; positive | Species: MOUSE, Strain/Sex: CD-1/MALE, Route: INHALATION, Dose: 0, 300 PPM 6HR/D, 5D/WK FOR 1 WK FOLLOWED BY 2 WK NO TREATMENT, CYCLE REPEATED FOR LIFESPAN (STUDY DURATION: LIFESPAN), Tumor Site: Type of Lesion: LUNG: ADENOMA, HEMATOPOIETIC SYSTEM: LEUKEMIA OR LYMPHOMA, ZYMBAL GLAND: CARCINOMA, Tumor Site: Type of Lesion: LUNG: ADENOMA, HEMATOPOIETIC SYSTEM: LEUKEMIA OR LYMPHOMA, ZYMBAL GLAND: CARCINOMA active; positive | Species: MOUSE, Strain/Sex: CD-1/MALE, Route: INHALATION, Dose: 0, 1200 PPM 6HR/D, 5D/WK FOR 10 WK (STUDY DURATION: LIFESPAN), Tumor Site: Type of Lesion: LUNG: ADENOMA, HEMATOPOIETIC SYSTEM: LEUKEMIA OR LYMPHOMA, ZYMBAL GLAND: CARCINOMA, Tumor Site: Type of Lesion: LUNG: ADENOMA, HEMATOPOIETIC SYSTEM: LEUKEMIA OR LYMPHOMA, ZYMBAL GLAND: CARCINOMA active; positive | Species: MOUSE, Strain/Sex: SWISS/FEMALE, Route: GAVAGE, Dose: 0, 500 MG/KG IN OLIVE OIL 1/D FOR 4 TO 5 D/WK FOR 78 WK (STUDY DURATION: LIFETIME), Tumor Site: Type of Lesion: MAMMARY GLAND: CARCINOMA, LUNG: TUMORS, ZYMBAL GLAND: CARCINOMA, Tumor Site: Type of Lesion: MAMMARY GLAND: CARCINOMA, LUNG: TUMORS, ZYMBAL GLAND: CARCINOMA active; positive | Species: MOUSE, Strain/Sex: SWISS/FEMALE, Route: INTRAGASTRIC, Dose: 0, 500 MG/KG IN OLIVE OIL 1/D 4-5 D/WK FOR 78 WK (STUDY DURATION: LIFESPAN), Tumor Site: Type of Lesion: LUNG: ADENOMA, MAMMARY GLAND: MALIGNANT TUMOR active; positive | Species: MOUSE, Strain/Sex: SWISS/MALE, Route: GAVAGE, Dose: 0, 500 MG/KG IN OLIVE OIL 1/D FOR 4 TO 5 D/WK FOR 78 WK (STUDY DURATION: LIFETIME), Tumor Site: Type of Lesion: LUNG: TUMOR, ZYMBAL GLAND: CARCINOMA active; positive | Species: MOUSE, Strain/Sex: SWISS/MALE, Route: INTRAGASTRIC, Dose: 0, 500 MG/KG IN OLIVE OIL 1/D 4-5 D/WK FOR 78 WK (STUDY DURATION: LIFESPAN), Tumor Site: Type of Lesion: ZYMBAL GLAND: CARCINOMA, LUNG: ADENOMA active; positive | Species: Mouse, Strain/Sex: C57BL/6 (heterozygous Trp53-deficient)/Male, Route: Inhalation, Dose: 0, 33, 100, 300 ppm 6 hr/d, 5 d/wk for 26 wks, then no exposure for lifetime, Dose: 0, 33, 100, 300 ppm 6 hr/d, 5 d/wk for 26 wks, then no exposure for lifetime, Tumor Site: Type of Lesion: Blood: hematopoietic neoplasms (38, 41, 36, 89%). Lymphoid tissue: thymic lymphoma (0, 4,16, 73%) active; positive (highest dose)
